For one data set, the target named is T1, human 5-HT6 (Homo sapiens, UniProt P50406).
T1 construct: expressed in transfected cells
The data set can be described thus: [3H]-LSD radioligand binding assay, 5-HT6R. Particulars: HEK293 expressing human 5-HT6R, read-out: 5-HT6 Ki. On the procedure: Next, the ligands’ affinity for the 5-HT6 receptors was evaluated in the [^3H]-LSD radioligand binding assay. Experiments were performed in a stable HEK293 cell line expressing the human 5-HT6R.
The pellets were stored at −80 °C.

A short description of data set [1]: Chromatographic hydrophobicity index on C18 column (lipophilicity). The format is physicochemical.
Excerpt: We began with an assay for lipophilicity, affinity for phospholipids (for 40 compounds), and drug binding to human serum albumin (HSA) (for 20 compounds), using chromatographic protocols developed by Valko [46] and implemented in our laboratory [47]. […] These methods allowed the determination of chromatographic hydrophobicity indices (CHIs), binding to HSA (%HSA), and phospholipids (CHIIAM) using a single-gradient elution experiment and comparison to reference substances.
The mobile phase flow rate was 1.5 mL/min, and the column was maintained at 30 °C. • Chiralpak® HSA (50 mm × 4 mm; 5 µm with safety guard column; Daicel Chiral Technologies, West Chester, PA, USA), mobile phase A: 50 mM ammonium acetate, mobile phase B: HPLC-grade isopropanol (VWR International, Leuven, Belgium). For the first 15 min, the linear gradient from 0 to 20% isopropanol was applied and then held at 20% isopropanol for 12 min. In the last 5 min of the sequence, the mobile phase mixture received a pure ammonium acetate solution. The column temperature was held at 30 °C, whereas the flow rate was 0.9 mL/min.
The reference substances for the calibration of HSA, C18, and IAM columns were purchased, respectively: acetanilide, butyrophenone, diclofenac, and octanonophenone (Alfa Aesar, Haverhill, MA, USA); acetophenone, benzimidazole, colchicine, indole, indometacin, paracetamol, and theophylline (Sigma-Aldrich, Steinheim, Germany); nicardipine and nizatidine (Cayman Chemical, Ann Arbor, MI, USA); carbamazepine, heptanophenone, hexanophenone, propiophenone, and valerophenone (Acros Organic, Pittsburg, PA, USA). Before chromatographic experiments, solutes were dissolved in dimethyl sulfoxide (Avantor Performance Materials Poland S.A., Gliwice, Poland) to obtain a 200 µg/mL concentration. The detection was performed in the UV region at the wavelength from 190 nm to 300 nm. The injected volume was 5 μL, and each compound was analyzed in triplicate.
Data set [2] is described as follows: Affinity to phospholipids, IAM column (CHI IAM). The format is physicochemical. Particulars: IAM.PC.DD2 column, pH 7.4.

From PMC11477289, “Low-Basicity 5-HT6 Receptor Ligands from the Group of Cyclic Arylguanidine Derivatives and Their Antiproliferative Activity Evaluation” (International Journal of Molecular Sciences, 2024) come the findings set out here.

T1 sequence (P50406 whole entry): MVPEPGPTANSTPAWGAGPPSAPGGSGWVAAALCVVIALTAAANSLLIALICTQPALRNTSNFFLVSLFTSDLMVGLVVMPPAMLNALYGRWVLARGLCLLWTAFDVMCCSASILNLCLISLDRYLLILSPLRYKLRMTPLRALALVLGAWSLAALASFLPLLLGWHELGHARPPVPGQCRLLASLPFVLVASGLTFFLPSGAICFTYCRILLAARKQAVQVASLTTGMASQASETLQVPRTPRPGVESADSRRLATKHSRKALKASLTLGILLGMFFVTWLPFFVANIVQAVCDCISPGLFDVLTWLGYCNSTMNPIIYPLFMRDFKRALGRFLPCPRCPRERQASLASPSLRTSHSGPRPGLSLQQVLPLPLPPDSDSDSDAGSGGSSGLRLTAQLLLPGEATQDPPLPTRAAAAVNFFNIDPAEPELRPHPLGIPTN

For orientation: Ki means a measure of affinity in units of concentration, obtained from inhibition or displacement. On to `O=S(=O)(NC1=Nc2ccc(Cl)cc2CN1)c1ccccc1` [PR 27, N -(6-chloro-3,4-dihydroquinazolin-2-yl)benzenesulfonamide], for which the Ki on human 5-HT6 came to 1690 ± 422 nM.
Still for that read-out and setting: for `N#Cc1cccc(S(=O)(=O)n2c(N)nc3ccccc32)c1` [PR 2, 3-[(2-amino-1H-1,3-benzodiazol-1-yl)sulfonyl]benzonitrile] the value was 49200 ± 1230 nM.
One may read the melting point as the temperature of the solid-liquid transition. Regarding `CC1NC(NS(=O)(=O)c2cccc3ccccc23)=Nc2c(Cl)cc(Cl)cc21` (centres unmarked) [PR 72, N -(6,8-dichloro-4-methyl-3,4-dihydroquinazolin-2-yl)naphthalene-1-sulfonamide], the melting point was 109 to 116 °C. Moreover, in data set [1], the “CHI C18 pH 2.6” value is 114.1, the “CHI C18 pH 7.4” value worked out at 111.3 and the “CHI C18 pH 10.5” value turned out to be 116.7. In addition, the “CHI IAM” value in data set [2] came to 49.3. At human 5-HT6, the Ki is 997 ± 249 nM.
Consider `Cc1c(S(=O)(=O)n2c(N)nc3ccccc32)sc2ccc(F)cc12` [PR 7, 1-[(5-fluoro-3-methyl-1-benzothiophen-2-yl)sulfonyl]-1H-1,3-benzodiazol-2-amine], for which the Ki on human 5-HT6 was 2950 ± 737 nM.
In turn, `O=S(=O)(NC1=Nc2cccc(Cl)c2CN1)c1ccc2ccccc2c1` [PR 31, N -(5-chloro-3,4-dihydroquinazolin-2-yl)naphthalene-2-sulfonamide] returned a melting point of 202 to 204 °C. In data set [1], the “CHI C18 pH 2.6” value turned out to be 99.7, the “CHI C18 pH 7.4” value was 97.4 and the “CHI C18 pH 10.5” value is reported as 100.6. The “CHI IAM” value in data set [2] is recorded as 46.0. At human 5-HT6, the Ki was determined as 2170 ± 538 nM.
Turning to `COc1ccc(Cl)cc1S(=O)(=O)NC1=Nc2ccccc2CN1` [PR 25, 5-chloro-N-(3,4-dihydroquinazolin-2-yl)-2-methoxybenzene-1-sulfonamide], the melting point fell in the range of 157 to 165 °C. In data set [1], the “CHI C18 pH 2.6” value is listed as 82.8, the “CHI C18 pH 7.4” value is 81.0 and the “CHI C18 pH 10.5” value was 83.0. The “CHI IAM” value in data set [2] is 35.3. Besides, at human 5-HT6, the Ki was found to be 4640 ± 1160 nM.
Take `COc1cccc(S(=O)(=O)NC2=Nc3ccccc3CN2)c1` [PR 24, N -(3,4-dihydroquinazolin-2-yl)-3-methoxybenzene-1-sulfonamide]: the melting point was in the range of 108 to 114 °C. Besides, in data set [1], the “CHI C18 pH 2.6” value is reported as 74.1, the “CHI C18 pH 7.4” value was determined as 74.5 and the “CHI C18 pH 10.5” value came to 75.5. The “CHI IAM” value in data set [2] was 31.4. In addition, the Ki on human 5-HT6 was 906 ± 227 nM.
Take `Nc1nc2ccccc2n1S(=O)(=O)c1cccc2ccccc12` [PR 3, 1-(naphthalene-1-sulfonyl)-1H-1,3-benzodiazol-2-amine]: the Ki at human 5-HT6 is 148 ± 37 nM.
In the case of `O=S(=O)(NC1=Nc2ccccc2CN1)c1ccccc1Cl` [PR 18, 2-chloro-N-(3,4-dihydroquinazolin-2-yl)benzene-1-sulfonamide], the melting point is 217 to 222 °C. In data set [1], the “CHI C18 pH 2.6” value is given as 76.4, the “CHI C18 pH 7.4” value is given as 76.3 and the “CHI C18 pH 10.5” value came to 86.6. The “CHI IAM” value in data set [2] is recorded as 33.5. In addition, the Ki at human 5-HT6 was 1800 ± 451 nM.
With `O=S(=O)(NC1=Nc2ccc(Cl)c(Cl)c2CN1)c1cccc2ccccc12` [PR 50, N -(5,6-dichloro-3,4-dihydroquinazolin-2-yl)naphthalene-1-sulfonamide], the melting point fell in the range of 233 to 240 °C. In data set [1], the “CHI C18 pH 2.6” value is 106.2, the “CHI C18 pH 7.4” value is 103.9 and the “CHI C18 pH 10.5” value is on record as 108.6. Further, the “CHI IAM” value in data set [2] was determined as 49.0. Besides, the Ki on human 5-HT6 stood at 451 ± 102 nM.
`Cc1ccc2c(c1)N=C(NS(=O)(=O)c1cccc3ccccc13)NC2` [PR 62, N -(7-methyl-3,4-dihydroquinazolin-2-yl)naphthalene-1-sulfonamide]: the melting point is 166 to 175 °C. In addition, in data set [1], the “CHI C18 pH 2.6” value was determined as 93.2, the “CHI C18 pH 7.4” value is listed as 93.0 and the “CHI C18 pH 10.5” value was determined as 93.7. For the same compound, in data set [2], the “CHI IAM” value was 41.6. For the same compound, on human 5-HT6, the Ki is 653 ± 151 nM.
`O=S(=O)(NC1=Nc2ccccc2CN1)c1cccc2cccc(Cl)c12` [PR 45, 8-chloro-N-(3,4-dihydroquinazolin-2-yl)naphthalene-1-sulfonamide] gave a melting point of 103 to 105 °C. For the same compound, the Ki at human 5-HT6 was 736 ± 169 nM.
On the same counts, the results for `O=S(=O)(NC1=Nc2ccccc2CN1)c1c(Cl)cccc1Cl` [PR 22, 2,6-dichloro-N-(3,4-dihydroquinazolin-2-yl)benzene-1-sulfonamide] are 168 to 174 °C and 1460 ± 364 nM.
Regarding `Nc1nc2ccccc2n1S(=O)(=O)c1ccc2ccccc2c1` [PR 4, 1-(naphthalene-2-sulfonyl)-1H-1,3-benzodiazol-2-amine], the Ki at human 5-HT6 worked out at 330 ± 83 nM.
Same read-out and setting: with “N -(3,4-dihydroquinazolin-2-yl)naphthalene-2-sulfonamide [PR 39]” the figure was 4270 ± 983 nM; with `O=S(=O)(Nc1nc2ccccc2[nH]1)c1ccccc1` [PR 10, N -(1H-1,3-benzodiazol-2-yl)benzenesulfonamide], 1720 ± 429 nM.
Turning to `O=S(=O)(NC1=NCc2ccccc2N1)c1ccccc1` [PR 13, N-(3,4-dihydroquinazolin-2-yl)benzenesulfonamide], the inhibition constant Ki on human 5-HT6 came out at 2610 ± 651 nM.
On the same count and under the same terms, with `O=S(=O)(NC1=Nc2ccccc2CN1)c1ccc(-c2ccccc2)cc1` [PR 26, N -(3,4-dihydroquinazolin-2-yl)-[1,1′-biphenyl]-4-sulfonamide] the figure was 4310 ± 1080 nM.
In turn, `O=S(=O)(NC1=Nc2cccc(Cl)c2CN1)c1c(Cl)ccc2ccccc12` [PR 52, 2-chloro-N-(5-chloro-3,4-dihydroquinazolin-2-yl)naphthalene-1-sulfonamide] gave a melting point of 267 to 270 °C. Also, the Ki at human 5-HT6 turned out to be 133 ± 33 nM.
In the case of `CC1NC(NS(=O)(=O)c2ccc3ccccc3c2)=Nc2ccccc21` (centres unmarked) [PR 34, N -(4-methyl-3,4-dihydroquinazolin-2-yl)naphthalene-2-sulfonamide], the Ki at human 5-HT6 was found to be 702 ± 152 nM.
Compound `O=S(=O)(NC1=Nc2ccc(N3CCOCC3)cc2CN1)c1cccc2ccccc12` [PR 65, N -[6-(morpholin-4-yl)-3,4-dihydroquinazolin-2-yl]naphthalene-1-sulfonamide] registered a melting point of 278 to 281 °C. Also, the Ki at human 5-HT6 was determined as 4700 ± 1080 nM.
On to `O=S(=O)(NC1=Nc2ccc(F)cc2CN1)c1cccc2ccccc12` [PR 55, N -(6-fluoro-3,4-dihydroquinazolin-2-yl)naphthalene-1-sulfonamide], for which the melting point fell in the range of 206 to 210 °C. Besides, the Ki at human 5-HT6 worked out at 1790 ± 412 nM.
With `O=S(=O)(NC1=NCc2cc(Cl)ccc2N1)c1ccc2ccccc2c1` [PR 32, N -(6-chloro-3,4-dihydroquinazolin-2-yl)naphthalene-2-sulfonamide], on human 5-HT6, the Ki worked out at 948 ± 212 nM.
Still for that read-out and setting: with `O=S(=O)(NC1=Nc2ccccc2CN1)c1ccc(C(F)(F)F)cc1` [PR 16, N -(3,4-dihydroquinazolin-2-yl)-4-(trifluoromethyl)benzene-1-sulfonamide] the figure was 5100 ± 1270 nM; with `CN(c1nc2ccccc2n1C)S(=O)(=O)c1ccc2ccccc2c1` [PR 12, N -methyl-N-(1-methyl-1H-1,3-benzodiazol-2-yl)naphthalene-2-sulfonamide], 41900 ± 10500 nM; with `CC1NC(NS(=O)(=O)c2ccc3ccccc3c2)=Nc2ccc(Cl)cc21` (centres unmarked) [PR 35, N -(6-chloro-4-methyl-3,4-dihydroquinazolin-2-yl)naphthalene-2-sulfonamide], 2380 ± 593 nM.
Same read-out and setting: with `O=S(=O)(NC1=Nc2ccccc2CN1)c1cccc(Cl)c1Cl` [PR 20, 2,3-dichloro-N-(3,4-dihydroquinazolin-2-yl)benzene-1-sulfonamide] the figure was 293 ± 73 nM; with `Nc1nc2cc(Cl)ccc2n1S(=O)(=O)c1cccc2ccccc12` [PR 6, 5-chloro-1-(naphthalene-1-sulfonyl)-1H-1,3-benzodiazol-2-amine], 704 ± 176 nM.
Still for that read-out and setting: for `O=S(=O)(NC1=NCc2ccccc2N1)c1ccc2ccccc2c1` [PR 29, N -(3,4-dihydroquinazolin-2-yl)naphthalene-2-sulfonamide] the value was 3630 ± 909 nM.
As to `CC1NC(NS(=O)(=O)c2ccccc2)=Nc2ccccc21` (centres unmarked) [PR 28, N -(4-methyl-3,4-dihydroquinazolin-2-yl)benzenesulfonamide], the Ki at human 5-HT6 worked out at 4030 ± 1010 nM.
`O=S(=O)(NC1=Nc2ccc(C(F)(F)F)cc2CN1)c1cccc2ccccc12` [PR 57, N -[6-(trifluoromethyl)-3,4-dihydroquinazolin-2-yl]naphthalene-1-sulfonamide] came in with a melting point of 215 to 222 °C. In addition, the Ki on human 5-HT6 was found to be 1020 ± 235 nM.
With `CN(C)c1cccc2c1CNC(NS(=O)(=O)c1cccc3ccccc13)=N2` [PR 63, N -[5-(dimethylamino)-3,4-dihydroquinazolin-2-yl]naphthalene-1-sulfonamide], the Ki at human 5-HT6 was 151 ± 35 nM.
For the compound `Nc1nc2ccccc2n1S(=O)(=O)c1ccccc1` [PR 1, 1-(benzenesulfonyl)-1H-1,3-benzodiazol-2-amine], on human 5-HT6, the Ki stood at 2160 ± 539 nM.
In turn, `O=S(=O)(NC1=NCCc2ccccc2N1)c1ccc2ccccc2c1` [PR 38, N -(4,5-dihydro-1H-1,3-benzodiazepin-2-yl)naphthalene-2-sulfonamide] came in with a melting point of 175 to 180 °C. On human 5-HT6, the inhibition constant Ki is 1410 ± 331 nM.
As for `O=S(=O)(NC1=Nc2ccccc2CN1)c1ccc(F)c(F)c1` [PR 15, N -(3,4-dihydroquinazolin-2-yl)-3,4-difluorobenzene-1-sulfonamide], the Ki on human 5-HT6 was determined as 5270 ± 1330 nM.
On to `CC1NC(NS(=O)(=O)c2cccc3ccccc23)=Nc2ccc(Cl)cc21` (centres unmarked) [PR 69, N -(6-chloro-4-methyl-3,4-dihydroquinazolin-2-yl)naphthalene-1-sulfonamide], for which the melting point is 144 to 153 °C. Moreover, the Ki on human 5-HT6 amounted to 372 ± 93 nM.
For the compound `Nc1nc2ccccc2n1S(=O)(=O)c1ccc2c(c1)CC(=O)N2` [PR 5, 5-[(2-amino-1H-1,3-benzodiazol-1-yl)sulfonyl]-2,3-dihydro-1H-indol-2-one], at human 5-HT6, the inhibition constant Ki came out at 14800 ± 3690 nM.
